From patent US10421718B2, “EBNA1 inhibitors and their method of use” (priority 2013, dated 2019)
pIC50: −log10 of the molar value.

biological target: T1, His-EBNA1 (DNA binding domain of EBNA1, amino acids 459-607) (Epstein-Barr virus, UniProt P03211); assay: Inhibition of 5′-biotin-oPL4624 binding to His-EBNA1 using Alpha Screen technology; details: Alpha Screen Activity (IC50, inhibition of 5′-biotin-oPL4624 binding to His-EBNA1), 15 nM His-EBNA1, 0.2 nM bt-oPL4624, 2 hr room temperature
T1 construct: made in house; host or cells: E. coli
T1 sequence (P03211 459-607): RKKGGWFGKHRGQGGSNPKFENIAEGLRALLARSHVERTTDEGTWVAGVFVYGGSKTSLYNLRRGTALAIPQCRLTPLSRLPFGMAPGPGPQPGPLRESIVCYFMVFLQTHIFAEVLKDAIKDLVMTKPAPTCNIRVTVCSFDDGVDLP
In short: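 AlphaScreen signal (680 nm ex, 570 nm em) after a 2-h room-temperature incubation, normalized to no-EBNA1 (100% inhibition) and EBNA1 (0%) values and fit to a one-site curve. Final conditions: 15 nM His-EBNA1 (aa 459-607), 0.2 nM bt-oPL4624, Tris pH 7.2 buffer with 160 mM NaCl, compound 3.2 nM to 100 μM.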

Question: How did the pIC50 turn out when COc1ccc(C#Cc2cccc(C(=O)O)c2-c2ccc3cc[nH]c3c2)cc1 [Entry 210, 2-(1H-indol-6-yl)-3-(4-methoxy-phenylethynyl)-benzoic acid] was run?
Answer: 5.00 to 6.00

Question: With NC(=O)c1ccc(C#Cc2cccc(C(=O)O)c2-c2ccc3cc[nH]c3c2)cc1 [Entry 211, 3-(4-carbamoyl-phenylethynyl)-2-(1H-indol-6-yl)-benzoic acid] as the compound, how does the pIC50 read?
Answer: 5.00 to 6.00

Question: O=C(O)c1cccc(C#Cc2ccc(C(=O)N3CCNCC3)cc2)c1-c1ccc2cc[nH]c2c1 [Entry 212, 2-(1H-indol-6-yl)-3-[4-(piperazine-1-carbonyl)-phenylethynyl]-benzoic acid] was tested. Which pIC50 did it give?
Answer: 5.00 to 6.00

Question: How did the pIC50 turn out when CC(=O)Nc1ccc(C#Cc2cccc(C(=O)O)c2-c2ccc3cc[nH]c3c2)cc1 [Entry 213, 3-(4-acetylamino-phenylethynyl)-2-(1H-indol-6-yl)-benzoic acid] was run?
Answer: 4.00 to 5.00

Question: With O=C(Nc1ccc(C#Cc2cccc(C(=O)O)c2-c2ccc3cc[nH]c3c2)cc1)c1cccnc1 [Entry 214, 2-(1H-indol-6-yl)-3-{4-[(pyridine-3-carbonyl)-amino]phenylethynyl}-benzoic acid] as the compound, how does the pIC50 read?
Answer: > 6.00

Question: How did the pIC50 turn out when CS(=O)(=O)Nc1ccc(C#Cc2cccc(C(=O)O)c2-c2ccc3cc[nH]c3c2)cc1 [Entry 215, 2-(1H-indol-6-yl)-3-(4-methanesulfonylamino-phenylethynyl)-benzoic acid] was run?
Answer: 5.00 to 6.00

Question: With O=C(O)c1cccc(C#Cc2ccc(NS(=O)(=O)c3cccs3)cc2)c1-c1ccc2cc[nH]c2c1 [Entry 216, 2-(1H-indol-6-yl)-3-[4-(thiophene-2-sulfonylamino)-phenylethynyl]-benzoic acid] as the compound, how does the pIC50 read?
Answer: 5.00 to 6.00

Question: With COC(=O)c1c[nH]c2cc(-c3c(C#Cc4cscn4)cccc3C(=O)O)ccc12 [Entry 217, 2-(3-(Methoxycarbonyl)-1H-indol-6-yl)-3-(thiazol-4-ylethynyl)benzoic acid] as the compound, how does the pIC50 read?
Answer: 5.00 to 6.00

Question: How did the pIC50 turn out when O=C(O)c1cccc(C#Cc2cscn2)c1-c1ccc2cc[nH]c2c1 [Entry 218, 2-(1H-indol-6-yl)-3-(thiazol-4-ylethynyl)benzoic acid] was run?
Answer: 4.00 to 5.00

Question: How did the pIC50 turn out when Cn1cc(-c2c(C#Cc3cscn3)cccc2C(=O)O)cn1 [Entry 219, 2-(1-methyl-1H-pyrazol-4-yl)-3-(thiazol-4-ylethynyl)benzoic acid] was run?
Answer: 4.00 to 5.00

Question: With Cn1cc(-c2c(C#Cc3cccc(O)c3)cccc2C(=O)O)cn1 [Entry 220, 3-((3-hydroxyphenyl)ethynyl)-2-(1-methyl-1H-pyrazol-4-yl)benzoic acid] as the compound, how does the pIC50 read?
Answer: 5.00 to 6.00

Question: O=C(O)c1cccc(C#Cc2cccc(O)c2)c1-c1ccc2c(Cl)c[nH]c2c1 [Entry 221, 2-(3-chloro-1H-indol-6-yl)-3-((3-hydroxyphenyl)ethynyl)benzoic acid] was tested. Which pIC50 did it give?
Answer: 5.00 to 6.00

Question: O=C(O)c1cccc(C#Cc2cccc(O)c2)c1-c1ccc2cn[nH]c2c1 [Entry 222, 3-((3-hydroxyphenyl)ethynyl)-2-(1H-indazol-6-yl)benzoic acid] was tested. Which pIC50 did it give?
Answer: 5.00 to 6.00

Question: How did the pIC50 turn out when CC(=O)NCCc1c[nH]c2cc(-c3c(C#Cc4cccc(O)c4)cccc3C(=O)O)ccc12 [Entry 223, 2-(3-(2-acetamidoethyl)-1H-indol-6-yl)-3-((3-hydroxyphenyl)ethynyl)benzoic acid] was run?
Answer: 5.00 to 6.00

Question: CN(C)S(=O)(=O)c1cccc(C#Cc2cccc(C(=O)O)c2F)c1 [Entry 224] was tested. Which pIC50 did it give?
Answer: 4.00 to 5.00

Question: With O=C(O)c1cccc(C#Cc2ccc(OC3CCOCC3)cc2)c1-c1ccc2cc[nH]c2c1 [Entry 225, 2-(1H-indol-6-yl)-3-((4-(tetrahydro-2H-pyran-4-yloxy)phenyl)ethynyl)benzoic acid] as the compound, how does the pIC50 read?
Answer: > 6.00

Question: With O=C(O)c1cccc(C#Cc2ccc(N3CCOCC3)cc2)c1-c1ccc2cc[nH]c2c1 [Entry 226, 2-(1H-indol-6-yl)-3-((4-morpholinophenyl)ethynyl)benzoic acid] as the compound, how does the pIC50 read?
Answer: 4.00 to 5.00

Question: NC(=O)c1cccc(C#Cc2cccc(C(=O)O)c2-c2ccc3cc[nH]c3c2)c1 [Entry 227, 3-((3-carbamoylphenyl)ethynyl)-2-(1H-indol-6-yl)benzoic acid] was tested. Which pIC50 did it give?
Answer: 4.00 to 5.00

Question: With O=C(O)c1cccc(C#Cc2ccc(F)cc2)c1-c1ccc2cc[nH]c2c1 [Entry 228, 3-((4-Fluorophenyl)ethynyl)-2-(1H-indol-6-yl)benzoic acid] as the compound, how does the pIC50 read?
Answer: 5.00 to 6.00

Question: O=C(O)c1cccc(C#Cc2ccc(F)cc2F)c1-c1ccc2cc[nH]c2c1 [Entry 229, 3-((2,4-Difluorophenyl)ethynyl)-2-(1H-indol-6-yl)benzoic acid] was tested. Which pIC50 did it give?
Answer: 5.00 to 6.00

Question: With CC(=O)Nc1cccc(C#Cc2cccc(C(=O)O)c2-c2ccc3cc[nH]c3c2)c1 [Entry 230, 3-((3-Acetamidophenyl)ethynyl)-2-(1H-indol-6-yl)benzoic acid] as the compound, how does the pIC50 read?
Answer: > 6.00

Question: How did the pIC50 turn out when O=C(Nc1cccc(C#Cc2cccc(C(=O)O)c2-c2ccc3cc[nH]c3c2)c1)c1cccnc1 [Entry 231, 2-(1H-indol-6-yl)-3-((3-(nicotinamido)phenyl)ethynyl)benzoic acid] was run?
Answer: 5.00 to 6.00

Question: How did the pIC50 turn out when O=C(O)c1cccc(C#Cc2cccc(NS(=O)(=O)c3ccc(F)c(Cl)c3)c2)c1-c1ccc2cc[nH]c2c1 [Entry 232, 3-((3-(3-chloro-4-fluorophenylsulfonamido)phenyl)ethynyl)-2-(1H-indol-6-yl)benzoic acid] was run?
Answer: > 6.00

Question: With Nc1cccc(C#Cc2cccc(C(=O)O)c2-c2ccc3cc[nH]c3c2)c1 [Entry 233, 3-((3-aminophenyl)ethynyl)-2-(1H-indol-6-yl)benzoic acid] as the compound, how does the pIC50 read?
Answer: > 6.00

Question: How did the pIC50 turn out when CS(=O)(=O)Nc1cccc(C#Cc2cccc(C(=O)O)c2-c2ccc3cc[nH]c3c2)c1 [Entry 234, 2-(1H-indol-6-yl)-3-((3-(methylsulfonamido)phenyl)ethynyl)benzoic acid] was run?
Answer: 5.00 to 6.00

Question: How did the pIC50 turn out when O=C(O)c1cccc(C#Cc2cccc(NS(=O)(=O)c3cccs3)c2)c1-c1ccc2cc[nH]c2c1 [Entry 235, 2-(1H-indol-6-yl)-3-((3-(thiophene-2-sulfonamido)phenyl)ethynyl)benzoic acid] was run?
Answer: > 6.00

Question: How did the pIC50 turn out when CC(=O)Nc1cc(F)cc(C#Cc2cccc(C(=O)O)c2-c2ccc3cc[nH]c3c2)c1 [Entry 236, 3-((3-acetamido-5-fluorophenyl)ethynyl)-2-(1H-indol-6-yl)benzoic acid] was run?
Answer: > 6.00

Question: How did the pIC50 turn out when O=C(O)c1cccc(C#Cc2ccccc2)c1-c1ccc2c(c1)NCC2 [Entry 237, 2-(indolin-6-yl)-3-(phenylethynyl)benzoic acid] was run?
Answer: 4.00 to 5.00

Question: O=C(O)c1cccc(C#Cc2cccc(O)c2)c1-c1ccc2c(c1)NCC2 [Entry 238, 3-((3-hydroxyphenyl)ethynyl)-2-(indolin-6-yl)benzoic acid] was tested. Which pIC50 did it give?
Answer: 5.00 to 6.00

Question: How did the pIC50 turn out when Nc1cccc(C#Cc2cccc(C(=O)O)c2-c2ccc3cc[nH]c3c2)n1 [Entry 239, 3-((6-aminopyridin-2-yl)ethynyl)-2-(1H-indol-6-yl)benzoic acid] was run?
Answer: 5.00 to 6.00

Question: Nc1cc(C#Cc2cccc(C(=O)O)c2-c2ccc3cc[nH]c3c2)ccn1 [Entry 240, 3-((2-aminopyridin-4-yl)ethynyl)-2-(1H-indol-6-yl)benzoic acid] was tested. Which pIC50 did it give?
Answer: 5.00 to 6.00

Question: How did the pIC50 turn out when COc1cncc(-c2c(C#Cc3cccc(O)c3)cccc2C(=O)O)c1 [Entry 241, 3-((3-hydroxyphenyl)ethynyl)-2-(5-methoxypyridin-3-yl)benzoic acid] was run?
Answer: 4.00 to 5.00

Question: How did the pIC50 turn out when O=C(O)c1cccc(C#Cc2cccc(O)c2)c1-c1ccc2c(c1)OCO2 [Entry 242, 2-(benzo[d][1,3]dioxol-5-yl)-3-((3-hydroxyphenyl)ethynyl)benzoic acid] was run?
Answer: 4.00 to 5.00

Question: How did the pIC50 turn out when O=C(O)c1cccc(C#Cc2cccc(O)c2)c1-c1cncnc1 [Entry 243, 3-((3-hydroxyphenyl)ethynyl)-2-(pyrimidin-5-yl)benzoic acid] was run?
Answer: 4.00 to 5.00

Question: With COc1cc(-c2c(C#Cc3cccc(O)c3)cccc2C(=O)O)ccc1N [Entry 244, 4′-Amino-6-((3-hydroxyphenyl)ethynyl)-5′-methoxybiphenyl-2-carboxylic acid] as the compound, how does the pIC50 read?
Answer: 4.00 to 5.00

Question: O=C(O)c1cccc(C#CCCO)c1-c1ccc2cc[nH]c2c1 [Entry 245, 3-(4-hydroxybut-1-ynyl)-2-(1H-indol-6-yl)benzoic acid] was tested. Which pIC50 did it give?
Answer: > 6.00

Question: CC(C)(N)C#Cc1cccc(C(=O)O)c1-c1ccc2cc[nH]c2c1 [Entry 246, 3-(3-amino-3-methylbut-1-ynyl)-2-(1H-indol-6-yl)benzoic acid] was tested. Which pIC50 did it give?
Answer: 5.00 to 6.00

Question: With O=C(O)c1cccc(C#CC(O)c2ccccc2)c1-c1ccc2cc[nH]c2c1 (stereo not drawn) [Entry 247, 3-(3-hydroxy-3-phenylprop-1-ynyl)-2-(1H-indol-6-yl)benzoic acid] as the compound, how does the pIC50 read?
Answer: > 6.00

Question: How did the pIC50 turn out when CC(C)(O)C#Cc1cccc(C(=O)O)c1-c1ccc2cc[nH]c2c1 [Entry 248, 3-(3-hydroxy-3-methylbut-1-ynyl)-2-(1H-indol-6-yl)benzoic acid] was run?
Answer: > 6.00

Question: With O=C(O)c1cccc(C#Cc2cccc(CO)c2)c1-c1ccc2cc[nH]c2c1 [Entry 249, 3-((3-(hydroxymethyl)phenyl)ethynyl)-2-(1H-indol-6-yl)benzoic acid] as the compound, how does the pIC50 read?
Answer: 5.00 to 6.00

Question: How did the pIC50 turn out when O=C(O)c1cc2ccc(-c3c(C#Cc4ccccc4)cccc3C(=O)O)cc2[nH]1 [Entry 250, 6-(2-carboxy-6-(phenylethynyl)phenyl)-1H-indole-2-carboxylic acid] was run?
Answer: 5.00 to 6.00

Question: With CCOC(=O)c1cc2ccc(-c3c(C#Cc4ccccc4)cccc3C(=O)O)cc2[nH]1 [Entry 251, 2-(2-(ethoxycarbonyl)-1H-indol-6-yl)-3-(phenylethynyl)benzoic acid] as the compound, how does the pIC50 read?
Answer: 5.00 to 6.00

Question: With COc1cc(C#Cc2cccc(C(=O)O)c2-c2ccc3cc[nH]c3c2)cc(C(N)=O)c1 [Entry 252, 3-((3-carbamoyl-5-methoxyphenyl)ethynyl)-2-(1H-indol-6-yl)benzoic acid] as the compound, how does the pIC50 read?
Answer: 5.00 to 6.00

Question: How did the pIC50 turn out when O=C(O)c1cccc(C#Cc2ccccc2)c1-c1ccc2[nH]ccc2c1 [Entry 253, 2-(1H-indol-5-yl)-3-(phenylethynyl)benzoic acid] was run?
Answer: 5.00 to 6.00

Question: O=C(O)c1cc2cc(-c3c(C#Cc4cccc(O)c4)cccc3C(=O)O)ccc2[nH]1 [Entry 254, 5-(2-carboxy-6-((3-hydroxyphenyl)ethynyl)phenyl)-1H-indole-2-carboxylic acid] was tested. Which pIC50 did it give?
Answer: 4.00 to 5.00
